The subject of one experiment is Beta-TC-6 cells. The experiment can be described thus: Insulin release enhancement in Beta-TC-6 cells (insulin ELISA). It counts as cell-based, mouse. Conditions: for Percent Enhancement of Insulin Secretion (10 μM): compound at 10 μM, compared to glucose-dependent insulin production. Here is the method: Beta-TC-6 cells are an insulin-secreting cell line derived from transgenic mice expressing the large T-antigen of simian virus 40 (SV40) in pancreatic beta-cells as described by Poitout et al., Diabetes, 44:306-313 (1995). The cell line was obtained from ATCC cell bank CAT# CRL-11506 and grown in Dulbecco's Modified Eagle's Medium (DMEM) with 15% fetal bovine serum (FBS), 4 mM glutamine, 4.5 mM glucose 1500 mg/L sodium bicarbonate and 1× penn/strep antibiotic mix in a 37° C. incubator with 5% CO2. Cultures were routinely split 1:2 twice a week with the aid of trypsin.
On the day before the assay 0.1×10^6 Beta-TC-6 cells were plated into each well of 96 well plates, and the cells cultured overnight in growth media.
On the next day, growth media was removed from the plate and the monolayers rinsed with phosphate buffered saline (PBS) and pre-incubated 30 mins at 37° C. in Krebs-Ringer Bicarbonate Buffer (KRBB) consisting of 118.5 mM NaCl, 2.54 mM CaCl2, 1.19 mM KH2PO4, 4.74 mM KCl, 25 mM NaHCO3, 1.19 mM MgSO4, 10 mM HEPES buffer and 0.1% bovine serum albumin at pH 7.4. This buffer was removed and replaced with 100 μL of the same buffer containing various insulin release modulators: including various concentrations of glucose up to 12 mM and compounds up to 100 μM. Compounds stock solutions, e.g. 10-20 mM, were diluted in DMSO. Final DMSO concentrations in incubation buffer were 0.5% or less. Vehicle controls were included. Static incubations were then performed for 2 h at 37° C. The entire incubation volume was collected after the 2 h incubation for insulin assay.
ELISA Protocol for insulin determinations. The following protocol was used for doing ELISA using the Rat/Mouse Insulin ELISA Kit from Linco Research, Inc., CAT#EZRMI-13K and Amplex® Red Hydrogen Peroxide/Peroxidase Assay Kit, CAT#A22188, and Amplex® Red reagent (10-acetyl-3,7-dihydroxyphenoxazine) CAT#A12222.
All reagents were Pre-warmed to room temperature before setting up experiment.
1. Dilute the 10× washing buffer into 1× washing buffer. 50 mL+450 mL de-ionized water. Do 1:10 dilution to the cell culture supernatant (Beta-TC-6 cell incubation).
2. Use one column (8 wells) wells for standard samples and QC1 and QC2, typically 0 and 5 ng/mL of insulin. On some plates full standard curves for insulin obtained as shown below.
3. Cover the unused wells well. Wash each well 3 times with 300 μL of 1× washing buffer each time. (2 minutes each washing step on the shaker.) Decant Wash Buffer and remove the residual amount from all wells by inverting the plate and tapping it smartly onto absorbent towels several times.
4. Add 20 μL Assay Buffer into that blank well and 10 μL into those wells for standards and samples.
5. Add 10 μL rat insulin standards and samples to the appropriate wells.
6. Add 80 μL Detection Antibody to all wells. Cover the plate and incubate at room temperature for 2 hours.
7. Tear off the plate cover and decant solutions from the plate. Tap to remove residual solutions in well.
8. Wash well 3 times with diluted wash buffer 300 μL per well per wash (2 minutes each washing step on the shaker). Tap to remove residual solutions as before.
9. Add 100 μL Enzyme Solution to each well. Cover plate with sealer and incubate with moderate shaking at room temperature for 30 min on the microtiter plate shaker.
10. Remove sealer, decant solutions from the plate and tap plate to remove the residual fluid.
11. Wash wells 6 times with diluted Wash Buffer, 300 μL per well per wash. Decant and tap after each wash to remove residual buffer.
12. Prepare 5 mL working solution of […] Amolex Red reagent containing 2.0 mM H2O2. 4.45 mL of 1× Reaction buffer+50 μL 10 mM Amplex Reagent+500 μL 20 mM H2O2.
13. Add 100 μL of the Amplex Red reagent/H2O2 to each well.
14. Incubate the reactions. Incubate at room temperature for 30 minutes, protected from light (using foil to wrap the plate). […]

The next experiment concerns the target T1, TRPM5 (Homo sapiens, UniProt Q9NZQ8).
T1 sequence (Q9NZQ8 1-1165): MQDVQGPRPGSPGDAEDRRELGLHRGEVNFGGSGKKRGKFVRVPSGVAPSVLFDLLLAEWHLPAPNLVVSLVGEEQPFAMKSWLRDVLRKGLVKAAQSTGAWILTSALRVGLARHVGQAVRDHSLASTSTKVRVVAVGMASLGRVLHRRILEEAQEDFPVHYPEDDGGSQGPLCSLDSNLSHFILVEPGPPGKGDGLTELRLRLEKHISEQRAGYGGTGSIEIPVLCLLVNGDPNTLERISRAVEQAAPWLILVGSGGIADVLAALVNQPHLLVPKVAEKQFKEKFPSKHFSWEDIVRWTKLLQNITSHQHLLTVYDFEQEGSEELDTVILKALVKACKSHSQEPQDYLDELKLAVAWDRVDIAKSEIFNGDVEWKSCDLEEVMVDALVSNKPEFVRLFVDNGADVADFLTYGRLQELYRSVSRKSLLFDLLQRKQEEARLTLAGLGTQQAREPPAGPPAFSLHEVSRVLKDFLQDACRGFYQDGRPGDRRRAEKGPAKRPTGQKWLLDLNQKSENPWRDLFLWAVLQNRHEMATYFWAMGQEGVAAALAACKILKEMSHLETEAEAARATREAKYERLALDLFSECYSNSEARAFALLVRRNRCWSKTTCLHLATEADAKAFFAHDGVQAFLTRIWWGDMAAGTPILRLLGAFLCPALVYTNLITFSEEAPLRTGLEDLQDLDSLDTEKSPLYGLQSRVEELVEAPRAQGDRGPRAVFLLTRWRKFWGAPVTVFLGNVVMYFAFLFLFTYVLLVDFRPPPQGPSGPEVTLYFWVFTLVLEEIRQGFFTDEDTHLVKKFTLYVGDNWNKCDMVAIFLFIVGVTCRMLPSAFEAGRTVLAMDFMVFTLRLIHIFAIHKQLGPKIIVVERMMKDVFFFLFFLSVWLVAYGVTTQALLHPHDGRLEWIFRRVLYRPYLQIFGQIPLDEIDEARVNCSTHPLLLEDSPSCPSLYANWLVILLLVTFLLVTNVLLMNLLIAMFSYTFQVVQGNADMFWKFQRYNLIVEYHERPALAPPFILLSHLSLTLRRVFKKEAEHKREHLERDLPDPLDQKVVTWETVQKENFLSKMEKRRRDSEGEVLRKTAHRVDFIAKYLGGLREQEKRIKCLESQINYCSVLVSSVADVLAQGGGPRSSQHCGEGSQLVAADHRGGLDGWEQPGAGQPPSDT
Put plainly: TRPM5 inhibition (FLIPR Membrane Potential Assay). It counts as cell-based.

Another experiment concerns GLUTag cells. The experiment can be described thus: GLP-1 release from GLUTag cells (GLP-1 ELISA). It counts as cell-based, mouse. Conditions: for IC50: Mus musculus, GLUTag cells.
The mark [1] stands for this setting: moderately high glucose (3.3 mM), FIG. 18.

For `COc1ccc(/C=N/NC(=O)Cc2cccc3ccccc23)cc1OC` [Example 3, (E)-N′-(3,4-Dimethoxybenzylidene)-2-(naphthalene-1-yl)acetohydrazide], the insulin secretion result in the experiment with Beta-TC-6 cells (FIG. 5) is on record as “increases insulin secretion”. In addition, the “Percent Enhancement of Insulin Secretion (10 μM)” value with Beta-TC-6 cells is 250%. The “glucose dependence of stimulation of insulin release” value in the experiment with Beta-TC-6 cells (varying glucose concentration, FIG. 3 and FIG. 7) is reported as “increases insulin secretion in a glucose-dependent manner”. For the same molecule, the IC50 against TRPM5 came to 600 nM; in the experiment with GLUTag cells (low glucose (0.1 mM), FIG. 19), 600 nM. For the same molecule, the GLP-1 secretion entry in the experiment with GLUTag cells (10 mM glucose, FIG. 16) was “enhances GLP-1 secretion”. For the same molecule, the GLP-1 release entry in the experiment with GLUTag cells (low glucose (0.1 mM), FIG. 19) is recorded as “increase GLP-1 release”; with GLUTag cells (setting [1]), “increase GLP-1 release”.
As for `COc1ccc(/C=N/NC(=O)CCn2c3ccccc3c3ccccc32)cc1OC` [Example 23, 3-Carbazol-9-ylpropionic acid (3,4-dimethoxybenzylidene)hydrazide], in the experiment with Beta-TC-6 cells, the “Percent Enhancement of Insulin Secretion (10 μM)” value was found to be 208%. In addition, the IC50 at TRPM5 came to 500 nM; in the experiment with GLUTag cells (low glucose (0.1 mM), FIG. 19) it was 111 nM. The GLP-1 release entry in the experiment on GLUTag cells (low glucose (0.1 mM), FIG. 19) is recorded as “increase GLP-1 release”; with GLUTag cells (setting [1]), “increase GLP-1 release”.

Source of the values: patent US8193168B2, “Use of a TRPM5 inhibitor to regulate insulin and GLP-1 release” (Redpoint Bio Corporation, priority 2007, dated 2012).
